Our source for the Activity and inhibition values is ChEMBL document CHEMBL5380864, “Novel Synthesis of C-Methylated Phytocannabinoids Bearing Anti-inflammatory Properties” (J Med Chem, 2023).

The subject of assay [1] is Mus musculus. Briefly: Anti-inflammatory activity against zymosan A-induced Sabra mouse model assessed as reduction in paw swelling at 5 to 50 mg/kg, ip measured after 6 hrs. In kind it is functional, organism-based. The note with it: dose 5-50 mg/kg.
Assay [2] concerns Mus musculus. Briefly: Anti-inflammatory activity against zymosan A-induced Sabra mouse model assessed as reduction in pain sensation at 5 to 50 mg/kg, ip measured after 6 hrs. Type of assay: functional, organism-based. The conditions noted are these: dose 5-50 mg/kg.
Assay [3] has as its system Mus musculus. Briefly: Anti-inflammatory activity against zymosan A-induced Sabra mouse model assessed as reduction in TNF-alpha level at 5 to 50 mg/kg, ip measured after 24 hrs by ELSA analysis. In kind it is functional, organism-based. The note with it: dose 5-50 mg/kg.
The subject of assay [4] is Mus musculus. Briefly: Anti-inflammatory activity against zymosan A-induced Sabra mouse model assessed as reduction in TNF-alpha level administered intraperitoneally and measured after 24 hrs by ELISA analysis. Type of assay: functional, organism-based. The conditions noted are these: route ip.
Assay [5] has as its system Mus musculus. Briefly: Anti-inflammatory activity against zymosan A-induced Sabra mouse model assessed as reduction in […] at 5 to 25 mg/kg, ip measured after 6 hrs. In kind it is functional, organism-based. The conditions noted are these: dose 5-25 mg/kg.
In assay [6] the test system is Mus musculus. Briefly: Anti-inflammatory activity against zymosan A-induced Sabra mouse model assessed as reduction in paw swelling at 5 to 25 mg/kg, ip measured after 6 hrs. The conditions noted are these: dose 5-25 mg/kg. Type of assay: functional, organism-based.
In assay [7] the test system is Mus musculus. Briefly: Anti- inflammatory activity against C57BL/6 mouse model of LPS-induced peritonitis assessed as reduction in plasma IL-6 level at 5 mg/kg, ip pre-administered for 60 mins followed by LPS-stimulation and measured after 90 mins by ELISA analysis. In kind it is functional, organism-based. The note with it: time 150.0 min.
Assay [8] relates to Mus musculus. Briefly: Anti- inflammatory activity against C57BL/6 mouse model of LPS-induced peritonitis assessed as reduction in plasma IL-1beta level at 5 mg/kg, ip pre-administered for 60 mins followed by LPS-stimulation and measured after 90 mins by ELISA analysis. Type of assay: functional, organism-based. The conditions noted are these: time 150.0 min.
The subject of assay [9] is Mus musculus. Briefly: Anti-inflammatory activity against zymosan A-induced Sabra mouse model assessed as reduction in TNF-alpha level at 5 to 25 mg/kg, ip measured after 24 hrs by ELISA analysis. In kind it is functional, organism-based. The conditions noted are these: dose 5-25 mg/kg.
For assay [10], the system named is Mus musculus. Briefly: Anti- inflammatory activity against C57BL/6 mouse model of LPS-induced peritonitis assessed as reduction in plasma TNF alpha level at 5 mg/kg, ip pre-administered for 60 mins followed by LPS-stimulation and measured after 90 mins by ELISA analysis. In kind it is functional, organism-based. The conditions noted are these: time 150.0 min.
Assay [11] has as its system Mus musculus. Briefly: Anti-inflammatory activity against zymosan A-induced Sabra mouse model assessed as reduction in pain sensation administered intraperitoneally and measured after 6 hrs. Type of assay: functional, organism-based. The conditions noted are these: dose 5-50 mg/kg, route ip.
Assay [12] relates to Mus musculus. Briefly: Anti-inflammatory activity against zymosan A-induced Sabra mouse model assessed as reduction in pain sensation at 10 to 25 mg/kg, ip measured after 6 hrs. Type of assay: functional, organism-based. The note with it: dose 10-25 mg/kg.
Assay [13] relates to Mus musculus. Briefly: Anti- inflammatory activity against C57BL/6 mouse model of LPS-induced peritonitis assessed as reduction in plasma IL-6 level at 10 mg/kg, ip pre-administered for 60 mins followed by LPS-stimulation and measured after 90 mins by ELISA analysis. In kind it is functional, organism-based. The conditions noted are these: time 150.0 min.
The subject of assay [14] is Mus musculus. Briefly: Anti-inflammatory activity against zymosan A-induced Sabra mouse model assessed as reduction in paw swelling at 10 to 25 mg/kg, ip measured after 6 hrs. In kind it is functional, organism-based. The note with it: dose 10-25 mg/kg.
The test system of assay [15] is Mus musculus. Briefly: Anti-inflammatory activity against zymosan A-induced Sabra mouse model assessed as reduction in TNF-alpha level at 10 to 25 mg/kg, ip measured after 24 hrs by ELISA analysis. Type of assay: functional, organism-based. The conditions noted are these: dose 10-25 mg/kg.
For assay [16], the system named is Mus musculus. Briefly: Anti- inflammatory activity against C57BL/6 mouse model of LPS-induced peritonitis assessed as reduction in plasma TNF alpha level at 10 mg/kg, ip pre-administered for 60 mins followed by LPS-stimulation and measured after 90 mins by ELISA analysis. The note with it: time 150.0 min. In kind it is functional, organism-based.
For assay [17], the system named is Mus musculus. Briefly: Anti- inflammatory activity against C57BL/6 mouse model of LPS-induced peritonitis assessed as reduction in plasma IL-1beta level at 10 mg/kg, ip pre-administered for 60 mins followed by LPS-stimulation and measured after 90 mins by ELISA analysis. The note with it: time 150.0 min. In kind it is functional, organism-based.
The subject of assay [18] is BMDM. Briefly: Inhibition of IL-1beta mRNA expression in LPS-stimulated human bone-marrow derived macrophage cells at 5 uM preincubated with compound for 3 hrs followed by LPS stimulation for 3 hrs and measured 30 mins after ATP addition by qRT-PCR analysis. The note with it: time 6.5 hrs. Type of assay: functional, cell-based.
Assay [19] deals with BMDM. Briefly: Inhibition of IL-1beta protein expression in LPS-stimulated human bone-marrow derived macrophage cells at 5 uM preincubated with compound for 3 hrs followed by LPS stimulation for 3 hrs and measured 30 mins after ATP addition by ELISA analysis. Type of assay: functional, cell-based. The conditions noted are these: time 6.5 hrs.

Molecules are shown by their SMILES. Active and inactive are the calls of the source. No cut-off for these calls is given here.

In the case of `C=C(C)[C@@H]1CCC(C)=C[C@H]1c1c(O)cc(CCCCC)c(C)c1O`, the outcome in the assay with Mus musculus [1], with Mus musculus [2] and with Mus musculus [3] was Active.

With `C=C(C)[C@@H]1CCC(C)=C[C@H]1c1c(O)cc(O)c(C)c1CCCCC`, in the assay on Mus musculus [4], the Activity result was “Dose-Dependent Effect”. Also, the result with Mus musculus [5] and with Mus musculus [6] was Active.

Turning to `CCCCCc1cc(O)c(C/C=C(\C)CCC=C(C)C)c(O)c1C`, the result in the assay on Mus musculus [7] and with Mus musculus [10] was inactive. Moreover, the result in the assay with Mus musculus [8], with Mus musculus [9], in the assay on Mus musculus [5] and in the assay on Mus musculus [6] was Active.

For the compound `C=C(C)[C@@H]1CCC(C)=C[C@H]1c1c(O)c(C)c(CCCCC)c(C)c1O`, the Activity entry in the assay with Mus musculus [11] was “Dose-Dependent Effect”. The outcome in the assay with Mus musculus [1] and with Mus musculus [3] was Active.

On to `C=C(C)[C@@H]1CCC(C)=C[C@H]1c1c(OC)cc(CCCCC)c(C)c1OC`, for which the outcome in the assay on Mus musculus [12], with Mus musculus [14], with Mus musculus [15] and with Mus musculus [16] was Active. The outcome in the assay on Mus musculus [13] and in the assay with Mus musculus [17] was inactive.

`CCCCCc1cc(OC)c(C/C=C(\C)CCC=C(C)C)c(OC)c1C`: the result in the assay on Mus musculus [1], with Mus musculus [2] and in the assay on Mus musculus [3] was Active.

On to `CCCCCc1cc(O)c([C@@H]2C=C(C)CC[C@H]2C(C)C)c(O)c1C`, for which the outcome with Mus musculus [12], in the assay with Mus musculus [14], in the assay on Mus musculus [15], in the assay with Mus musculus [8] and in the assay with Mus musculus [10] was Active. The inhibition entry in the assay on BMDM [18] and in the assay with BMDM [19] was “Active” throughout. Further, the outcome in the assay on Mus musculus [7] was inactive.
